Measurements published in patent US8952169B2 (Genentech, Inc., priority 2012, dated 2015).
pIC50: −log10 of the molar value. Like-named read-outs stand apart in the source and are kept apart here.

Target: hNav1.7 (Homo sapiens (Human), UniProt Q15858)
Experiment: Tritiated aryl sulfonamide binding to membranes from cells expressing hNav1.7 and the β1 subunit (competitive binding)
Conditions: read-out: NaV1.7 395 Memb Binding (IC50)
Protocol: Tritiated Aryl Sulfonamide Binding to Membranes Isolated from Cells that Heterologously Express hNav1.7 and the β1 Subunit
Preparation of membranes containing recombinantly expressed sodium channels: Frozen recombinant cell pellets were thawed on ice and diluted to 4 times the cell pellet weight with ice cold 50 mM Tris HCl, pH 7.4 buffer. The cell suspensions were homogenized on ice using a motorized glass dounce homogeniser. Homogenates were further diluted 8.4 times with ice cold 50 mM Tris HCl, pH 7.4 buffer and then centrifuged at 200×g at 4° C. for 15 min. The supernatants were collected and centrifuged at 10000×g at 4° C. for 50 min. The pellets were then re-suspended in 100 mM NaCl, 20 mM Tris HCl, pH 7.4 buffer containing 1% v/v protease inhibitors (Calbiochem) and re-homogenized on ice. The homogenized membranes were then processed through a syringe equipped with a 26 gauge needle. Protein concentrations were determined by Bradford Assay and the membranes were stored at −80° C.
Radioligand Binding Studies: Saturation experiments. A representative compound of formula (I) was tritiated. Three tritiums were incorporated in place of methyl hydrogens to generate [^3H]compound. Binding of this radioligand was preformed in 5 mL borosilicate glass test tubes at room temperature. Binding was initiated by adding membranes to increasing concentrations of [^3H]compound in 100 mM NaCl, 20 mM Tris HCl, pH 7.4 buffer containing 0.01% w/v bovine serum albumin (BSA) for 18 h. Non-specific binding was determined in the presence of 1 μM unlabelled compound. After 18 h, the reactants were filtered through GF/C glass fiber filters presoaked in 0.5% w/v polyethylene imine. […] [^3H]compound bound to filters was quantified by liquid scintillation counting.
Competitive binding experiments. Binding reactions were preformed in 96-well polypropylene plates at room temperature for 18 h. In 360 μL, membranes were incubated with 100 μM [^3H]compound and increasing concentrations of Test Compound. Non-specific binding was defined in the presence of 1 μM unlabelled compound. Reactions were transferred and filtered through 96-well glass fiber/C filter plates presoaked with 0.5% polyethylene imine. The filtered reactions were washed 5 times with 200 L ice cold buffer containing 0.25% BSA. Bound radioactivity was determined by liquid scintillation counting.
Data Analysis: For saturation experiments, non-specific binding was subtracted from total binding to provide specific binding and these values were recalculated in terms of pmol ligand bound per mg protein. Saturation curves were constructed and dissociation constants were calculated using the single site ligand binding model: Beq=(Bmax*X)/(X+Kd), where Beq is the amount of ligand bound at equilibrium, Bmax is the maximum receptor density, Kd is the dissociation constant for the ligand, and X is the free ligand concentration.

[1] = membranes with hNav1.7 and β1 subunit, [3H]compound displacement, 18 h, room temperature

hNav1.7, sequence (Q15858 whole entry, looked up): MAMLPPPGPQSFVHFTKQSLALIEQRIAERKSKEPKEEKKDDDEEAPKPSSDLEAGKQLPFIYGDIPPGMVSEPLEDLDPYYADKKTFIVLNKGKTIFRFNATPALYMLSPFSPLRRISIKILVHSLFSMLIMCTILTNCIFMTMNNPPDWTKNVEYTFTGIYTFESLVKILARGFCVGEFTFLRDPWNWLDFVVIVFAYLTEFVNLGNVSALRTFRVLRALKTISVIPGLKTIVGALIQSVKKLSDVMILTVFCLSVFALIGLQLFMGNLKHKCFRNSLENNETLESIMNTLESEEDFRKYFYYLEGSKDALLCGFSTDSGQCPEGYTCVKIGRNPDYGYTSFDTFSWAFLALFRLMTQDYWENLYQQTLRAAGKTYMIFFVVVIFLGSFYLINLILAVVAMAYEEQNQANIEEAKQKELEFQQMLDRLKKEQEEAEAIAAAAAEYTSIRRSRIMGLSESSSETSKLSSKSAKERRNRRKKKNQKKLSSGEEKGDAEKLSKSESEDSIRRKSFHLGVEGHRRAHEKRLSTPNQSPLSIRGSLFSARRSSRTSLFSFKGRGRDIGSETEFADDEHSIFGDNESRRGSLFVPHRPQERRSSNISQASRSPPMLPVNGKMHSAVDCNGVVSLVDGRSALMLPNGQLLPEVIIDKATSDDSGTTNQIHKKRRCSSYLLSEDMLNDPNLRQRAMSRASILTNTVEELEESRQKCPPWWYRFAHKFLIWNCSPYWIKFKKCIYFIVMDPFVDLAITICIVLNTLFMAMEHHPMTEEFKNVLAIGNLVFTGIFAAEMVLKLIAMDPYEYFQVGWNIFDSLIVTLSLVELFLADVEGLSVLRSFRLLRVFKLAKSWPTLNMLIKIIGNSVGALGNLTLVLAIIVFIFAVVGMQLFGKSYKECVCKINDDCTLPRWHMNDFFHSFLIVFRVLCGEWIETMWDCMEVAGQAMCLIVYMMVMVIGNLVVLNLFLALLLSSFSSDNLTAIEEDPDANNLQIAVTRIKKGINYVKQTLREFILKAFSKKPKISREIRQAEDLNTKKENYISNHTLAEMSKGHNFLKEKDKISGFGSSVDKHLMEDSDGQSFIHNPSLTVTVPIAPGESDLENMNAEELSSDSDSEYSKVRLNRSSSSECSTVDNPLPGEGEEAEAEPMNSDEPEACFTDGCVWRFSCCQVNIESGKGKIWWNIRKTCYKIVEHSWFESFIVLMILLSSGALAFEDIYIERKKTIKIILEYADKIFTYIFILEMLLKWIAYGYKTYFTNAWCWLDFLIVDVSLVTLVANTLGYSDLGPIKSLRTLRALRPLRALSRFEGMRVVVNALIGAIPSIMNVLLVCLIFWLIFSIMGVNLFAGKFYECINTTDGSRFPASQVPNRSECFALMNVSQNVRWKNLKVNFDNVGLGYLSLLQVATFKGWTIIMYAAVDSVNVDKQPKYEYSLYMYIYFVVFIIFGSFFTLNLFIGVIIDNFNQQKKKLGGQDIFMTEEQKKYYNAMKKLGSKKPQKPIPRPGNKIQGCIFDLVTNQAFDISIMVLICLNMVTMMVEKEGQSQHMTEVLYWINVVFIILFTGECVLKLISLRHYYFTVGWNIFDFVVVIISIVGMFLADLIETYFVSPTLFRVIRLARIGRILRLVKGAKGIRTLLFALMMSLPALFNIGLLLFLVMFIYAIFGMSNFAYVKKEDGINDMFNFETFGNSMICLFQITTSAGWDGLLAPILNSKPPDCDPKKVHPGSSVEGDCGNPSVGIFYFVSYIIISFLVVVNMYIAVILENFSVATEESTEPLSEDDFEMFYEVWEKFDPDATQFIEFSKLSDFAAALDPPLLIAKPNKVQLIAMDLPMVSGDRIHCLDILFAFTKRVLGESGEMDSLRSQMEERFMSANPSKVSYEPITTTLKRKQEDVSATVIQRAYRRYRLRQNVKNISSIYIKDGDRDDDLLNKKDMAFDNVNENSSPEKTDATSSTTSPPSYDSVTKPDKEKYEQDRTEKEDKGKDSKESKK
hNav1.7, sequence (Q07699 whole entry partner, looked up): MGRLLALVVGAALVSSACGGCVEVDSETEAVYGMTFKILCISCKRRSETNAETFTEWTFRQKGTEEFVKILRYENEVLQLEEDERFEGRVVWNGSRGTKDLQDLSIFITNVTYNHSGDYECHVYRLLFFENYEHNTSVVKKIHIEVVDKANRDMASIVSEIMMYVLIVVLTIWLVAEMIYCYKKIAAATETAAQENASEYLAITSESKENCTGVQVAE

pIC50 [1] | Compound | pIC50
5.00 | CC(C)(C)OC(=O)N1CCCC(COc2cc(F)c(C(=O)NS(C)(=O)=O)cc2F)C1 (stereo not shown) | 
6.92 | CS(=O)(=O)NC(=O)c1cc(Cl)c(OCC23CC4CC(CC(F)(C4)C2)C3)cc1F | 
 | CS(=O)(=O)NC(=O)c1ccc(C(O)C2C3CC4CC(C3)CC2C4)c(Cl)c1 (stereo not shown) | 5.92
5.16 | CS(=O)(=O)NC(=O)c1cc(F)c(OCCC2CC2)cc1F | 
7.05 | CS(=O)(=O)NC(=O)c1ccc(OCCC23CC4CC(CC(C4)C2)C3)c(Cl)c1 | 
7.80 | O=C(NS(=O)(=O)N1CCOCC1)c1cc(C2CC2)c(O[C@H]2C3CC4CC2C[C@](Cl)(C4)C3)cc1F | 
7.37 | CNS(=O)(=O)NC(=O)c1cc(C2CC2)c(OCC2(C#N)C3CC4CC(C3)CC2C4)cc1F (stereo not shown) | 
6.72 | CS(=O)(=O)NC(=O)c1cc(Cl)c(Oc2ccc3c(c2)CCCC3)cc1F | 
7.22 | CC(=O)c1cc(C(=O)NS(=O)(=O)N2CCC2)c(F)cc1OCC12CC3CC(CC(C3)C1)C2 | 
6.20 | O=C(NS(=O)(=O)N1CCC2(CC1)COC2)c1cc(C2CC2)c(OCC23CC4CC(CC(C4)C2)C3)cc1F | 
7.52 | COCCS(=O)(=O)NC(=O)c1cc(C2CC2)c(OCC2(C(F)(F)F)CCCCC2)cc1F | 
7.44 | O=C(NS(=O)(=O)N1CCC1)c1cc(C2CC2)c(OCC2CCCC2)cc1F | 
7.10 | O=C(NS(=O)(=O)N1CCC1)c1cc(C2CC2)c(OCC23CC4CC(CC(CO)(C4)C2)C3)cc1F | 
7.52 | O=C(NS(=O)(=O)N1CCC1)c1cc(Cl)c(OCC2(C(F)(F)F)CCCC2)cc1F | 
8.52 | CC1(COc2cc(F)c(C(=O)NS(=O)(=O)N3CCC3)cc2C2CC2)CCCCC1 | 
7.46 | O=C(NS(=O)(=O)N1CCC1)c1cc(C2CC2)c(OCC23CC4CC(C2)CC(OC(=O)C(F)(F)F)(C4)C3)cc1F | 
7.70 | CNS(=O)(=O)NC(=O)c1cc(C2CC2)c(OCC2(C(F)(F)F)CCCCC2)cc1F | 
6.89 | CNS(=O)(=O)NC(=O)c1cc(C2CC2)c(OCC2CCC(F)(F)CC2)cc1F | 
7.44 | CC(C)(F)c1cc(C(=O)NS(=O)(=O)N2CCC2)c(F)cc1OCC12CC3CC(CC(C3)C1)C2 | 
7.96 | O=C(NS(=O)(=O)C1CC1)c1cc(C2CC2)c(OCC2CC3CC3C2)cc1F (stereo not shown) | 
7.40 | O=C(NS(=O)(=O)N1CC2(CCO2)C1)c1cc(C2CC2)c(OCC23CC4CC(CC(C4)C2)C3)cc1F | 
6.68 | [2H]C1([2H])C([2H])([2H])C([2H])([2H])C([2H])(COc2cc(F)c(C(=O)NS(C)(=O)=O)cc2Cl)C([2H])([2H])C1([2H])[2H] | 

pIC50 [1] | Compound | pIC50
5.00 | CS(=O)(=O)NC(=O)c1cc(Cl)c(C(=O)NC23CC4CC(CC(C4)C2)C3)cc1F | 
5.00 | CC1(C)C(COc2cc(F)c(C(=O)NS(C)(=O)=O)cc2Cl)C1(C)C [listing 1 of 2 here] | 
5.00 | CS(=O)(=O)NC(=O)c1cc(F)c(OCC2CCCNC2)cc1F (stereo not shown) | 
6.85 | CS(=O)(=O)NC(=O)c1cc(Cl)c(OCC2CCCCC2)cc1F | 
6.85 | CS(=O)(=O)NC(=O)c1cc(Cl)c(OCCC2CCCC2)cc1F | 
6.70 | O=C(NS(=O)(=O)N1CCC1)c1cc(Cl)c(OCC2CC3C(C2)C3(F)F)cc1F (stereo not shown) | 
6.72 | CN(C)S(=O)(=O)NC(=O)c1cc(Cl)c(OC2C3CC4CC(C3)CC2C4)cc1F (stereo not shown) | 
6.22 | COC12CC3CC(CC(COc4cc(F)c(C(=O)NS(C)(=O)=O)cc4Cl)(C3)C1)C2 | 
 | CS(=O)(=O)NC(=O)c1cc(F)c(OCC2CCCO2)cc1F (stereo not shown) | 5.00
8.30 | CS(=O)(=O)NC(=O)c1cc(C2CC2)c(COC2C3CC4CC(C3)CC2C4)cc1F (stereo not shown) | 
8.05 | CS(=O)(=O)NC(=O)c1ccc(OCC23CC4CC(CC(C4)C2)C3)c(C2CCC2)c1 | 
8.22 | CS(=O)(=O)NC(=O)c1cc(Cl)c(COC2C3CC4CC(C3)CC2C4)cc1F (stereo not shown) | 
7.24 | CC1(C)[C@@H]2CC[C@@H](COc3cc(F)c(C(=O)NS(C)(=O)=O)cc3Cl)[C@H]1C2 | 
7.59 | CNS(=O)(=O)NC(=O)c1cc(Cl)c(COc2ccc3c(c2)CC(C)(C)CC3)cc1F | 
7.19 | CNS(=O)(=O)NC(=O)c1cc(Cl)c(COc2ccc3c(c2)CCC(C)(C)C3)cc1F | 
8.68 | CNS(=O)(=O)NC(=O)c1cc(C2CC2)c(OCC23CC4CC(CC(C4)C2)C3)cc1F | 
6.77 | CNS(=O)(=O)NC(=O)c1cc(Cl)c(COc2ccc3c(c2)CCC(C)(C)O3)cc1F | 
6.74 | CNS(=O)(=O)NC(=O)c1cc(Cl)c(COc2ccc3c(c2)OC(C)(C)CC3)cc1F | 
6.89 | O=C(NS(=O)(=O)CCO)c1cc(Cl)c(OCC23CC4CC(CC(C4)C2)C3)cc1F | 
7.01 | CNS(=O)(=O)NC(=O)c1cc(Cl)c(OCC23CC4CC(CC(C4)C2)C3)cc1F | 
7.68 | O=C(NS(=O)(=O)N1CCC1)c1cc(Cl)c(OCC23CC4CC(CC(C4)C2)C3)cc1F | 
6.72 | O=C(NS(=O)(=O)c1c[nH]cn1)c1cc(Cl)c(OCC23CC4CC(CC(C4)C2)C3)cc1F | 

pIC50 [1] | Compound | pIC50
7.26 | O=C(NS(=O)(=O)N1CCOCC1)c1cc(Cl)c(OCC23CC4CC(CC(C4)C2)C3)cc1F | 
6.11 | Cc1nnn(C23CC4CC(CC(COc5cc(F)c(C(=O)NS(C)(=O)=O)cc5Cl)(C4)C2)C3)n1 | 
6.72 | CN(C)S(=O)(=O)NC(=O)c1cc(Cl)c(COc2ccc3c(c2)OC(C)(C)CC3)cc1F | 
7.07 | CN(C)S(=O)(=O)NC(=O)c1cc(Cl)c(COc2ccc3c(c2)CCC(C)(C)C3)cc1F | 
7.48 | CCCCCC12CCC(COc3cc(F)c(C(=O)NS(=O)(=O)N(C)C)cc3Cl)(CC1)CC2 | 
5.77 | CN(C)S(=O)(=O)NC(=O)c1cc(Cl)c(OCC2(F)CCCCC2)cc1F | 
6.91 | CS(=O)(=O)NC(=O)c1cc(Cl)c(OCC2(C(F)(F)F)CCC2)cc1F | 
6.97 | CN(C)S(=O)(=O)NC(=O)c1cc(Cl)c(COc2ccc3c(c2)CC(C)(C)CC3)cc1F | 
7.79 | CN(C)S(=O)(=O)NC(=O)c1ccc(OCC23CC4CC(CC(C4)C2)C3)c(C2CC2)c1 | 
7.80 | CS(=O)(=O)NC(=O)c1cc(Cl)c(COC23CC4CC(CC(C4)C2)C3)cc1F | 
7.09 | CN(C)S(=O)(=O)NC(=O)c1cc(Cl)c(OCC2CCC3(CCC3)CC2)cc1F | 
7.03 | CC1(C)C(COc2cc(F)c(C(=O)NS(C)(=O)=O)cc2Cl)C1(C)C [listing 2 of 2 here] | 
7.07 | CS(=O)(=O)NC(=O)c1cc(Cl)c(OC[C@H]2CC[C@@H](C(F)(F)F)CC2)cc1F | 
 | 4-((1-((4-chlorophenyl)(phenyl)methyl)azetidin-3-yl)-methoxy)-5-cyclopropyl-2-fluoro-N-(methylsulfonyl)benzamide [Example 398] | 8.22
 | 5-cyclopropyl-4-((4,4-difluorocyclohexyl)methoxy)-2-fluoro-N-(N-methylsulfamoyl)benzamide [Example 214] | 6.05
5.92 | COC(=O)C12CC3CC(C1)C(Oc1cc(F)c(C(=O)NS(C)(=O)=O)cc1Cl)C(C3)C2 (single isomer, unassigned) [Example 450] | 
6.57 | COC(=O)C12CC3CC(C1)C(Oc1cc(F)c(C(=O)NS(C)(=O)=O)cc1Cl)C(C3)C2 (single isomer, unassigned) [Example 451] | 
5.15 | CNS(=O)(=O)NC(=O)c1cc(Cl)c(OC2C3CC4CC2CC(C(=O)OC)(C4)C3)cc1F (single isomer, unassigned) [Example 452] | 
6.02 | CNS(=O)(=O)NC(=O)c1cc(Cl)c(OC2C3CC4CC2CC(C(=O)OC)(C4)C3)cc1F (single isomer, unassigned) [Example 453] | 
7.40 | CS(=O)(=O)NC(=O)c1cc(Cl)c(OC2C3CC4CC(C3)CC2C4)cc1F (stereo not shown) [Example 9] | 
7.54 | CS(=O)(=O)NC(=O)c1cc(Cl)c(OCCC23CC4CC(CC(C4)C2)C3)cc1F [Example 11] | 
5.00 | CS(=O)(=O)NC(=O)c1ccc(CNC23CC4CC(CC(C4)C2)C3)c(Cl)c1 [Example 17] | 

Compound | pIC50 [1] | pIC50
CC1(COc2cc(F)c(C(=O)NS(C)(=O)=O)cc2C2CC2)CCC(F)(F)CC1 | 7.74 | 
5-chloro-4-((4,4-difluorocyclohexyl)methoxy)-2-fluoro-N-(methylsulfonyl)benzamide [Example 42] | 7.36 | 
5-chloro-N—(N,N-dimethylsulfamoyl)-2-fluoro-4-((4-pentylbicyclo[2.2.2]octan-1-yl)-methoxy)benzamide [Example 91] | 5.92 | 
5-cyclopropyl-4-((4,4-difluorocyclohexyl)methoxy)-2-fluoro-N-((3-fluoroazetidin-1-yl)sulfonyl)benzamide [Example 212] | 5.64 | 
